Columns and labels:
[1] = target: T1, GR (glutathione reductase) (Homo sapiens, UniProt P00390); test: GR counter-assay; type: biochemical; details: Fig. 9 pan-selenoprotein inhibitors
T1 construct: made in house
T1 sequence (P00390 44-522): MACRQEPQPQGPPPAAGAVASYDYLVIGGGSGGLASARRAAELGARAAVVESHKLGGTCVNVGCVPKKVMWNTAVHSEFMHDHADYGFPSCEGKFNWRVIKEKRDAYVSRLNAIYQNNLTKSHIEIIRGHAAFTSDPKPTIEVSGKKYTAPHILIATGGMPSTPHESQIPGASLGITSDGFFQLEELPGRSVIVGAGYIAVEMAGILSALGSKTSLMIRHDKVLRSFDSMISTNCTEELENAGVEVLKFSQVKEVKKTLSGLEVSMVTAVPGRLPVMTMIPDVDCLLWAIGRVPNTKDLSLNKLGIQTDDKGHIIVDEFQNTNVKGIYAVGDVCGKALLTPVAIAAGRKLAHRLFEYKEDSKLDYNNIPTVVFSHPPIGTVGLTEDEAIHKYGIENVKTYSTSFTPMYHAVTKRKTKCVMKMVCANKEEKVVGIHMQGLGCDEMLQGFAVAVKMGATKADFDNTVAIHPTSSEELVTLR
Protocol: The compound plates were prepared as described previously. Purified recombinant human GPX1, GPX2, GPX4, GR, and TXNRD1 were produced and purified as previously reported [[48], [49], [50]]. As production of GPX2 was not optimized at the onset of screening, only GPX1 and GPX4 underwent library screening, and GPX2 was used as a follow-up.
Follow-up and orthogonal assays were run in quadruplicate unless otherwise stated. Assay schemes are illustrated in Fig. 1.
To identify false positive compounds that interfere with the primary assay through inhibition of GR, ‘hits’ from the primary screening were run against a GR counter assay to identify this possible off-target inhibition (Fig. 1C). Briefly, 3 μL enzyme mixture (100 nM GR, 0.01% BSA in TES buffer) was dispensed into columns […] of a 1536-well black medium-binding solid-bottom plates. The no-enzyme control (0.01% BSA in TES buffer) was included in column 1 and 2. Compounds and controls (23 nL) were added to each well with a pin tool (Kalypsys), and the plates were incubated for 30 min before 2 μL of substrate mixture (1 mM GSSG 0.4 mM NADPH in TES buffer) was added to each well and absorbance at 340 nm was measured at t = 0 and t = 20 min using a ViewLux Multimodal detector (PerkinElmer).
(§1) Percent activity was determined by first calculating delta RFU (decrease in fluorescence between t = 0 and t = 20/30 min in primary GPX, GR counter-screen, and TXNRD1 assays, or increase in fluorescence between t = 0 and t = 20 min in the Monobromobimane GPX endpoint assay), and normalizing enzyme activity using median delta RFU values for DMSO-treated enzyme control, and DMSO-treated no-enzyme controls.
Compound inhibitory activity in the qHTS assays was determined by plotting dose-response data for each sample and fitting with a four-parameter logistic fit to assess IC50 values, efficacy (maximal response), and AUC (area under the curve), as previously described. Hits were classified by the quality of the concentration-response curves (CRC). Curve classes −1.1 and −1.2 being the highest-confidence actives with complete CRCs and classes −2.1 and −2.2 being lower-confidence actives with incomplete CRCs.

GPX1 [2] = target: T2, GPX1 (Homo sapiens, UniProt P07203); test: Monobromobimane orthogonal endpoint assay, GPX1; type: biochemical; details: initial tests comparing GR-coupled and mBBr assay formats
T2 construct: made in house; host or cells: E. coli
T2 sequence (P07203 1-203): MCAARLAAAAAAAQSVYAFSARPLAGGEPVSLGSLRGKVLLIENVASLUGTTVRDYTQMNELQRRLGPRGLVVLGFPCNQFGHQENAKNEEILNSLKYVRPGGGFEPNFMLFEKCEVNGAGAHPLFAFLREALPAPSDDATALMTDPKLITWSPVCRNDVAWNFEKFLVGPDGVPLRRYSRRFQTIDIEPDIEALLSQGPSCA
Protocol: As an orthogonal assessment of GPX inhibition, a monobromobimane endpoint assay was used (Fig. 1E). Briefly, 30 μL GPX mixture (0.01% BSA and enzyme [1 nM GPX1 or 25 nM GPX4] in TES buffer) was added to columns 2–24 of 384-well black medium-binding plates (Greiner) using a BioRAPTR FRD. TES buffer was used as a no-enzyme control in column 1. Compounds and controls were added in 11-point dose-response titration and incubated with enzyme for 30 min whereupon 10 μL of 400 μM GSH in TES buffer was added before starting the reaction with the addition of 10 μL 200 μM CHP and the reaction was left at room temperature for 10 min (GPX1) or 15 min (GPX4). Upon GPX activity, GSH was depleted over time, whereupon 500 μM mBBr was added and fluorescence at 394/490 was measured using a Viewlux multimodal detector every 20 s for 20 min.
as §1
Monobromobimane (mBBr) is a heterocyclic compound that reacts readily with low molecular weight thiols, like glutathione. […]

GPX1 [3] = target: T2, GPX1; test: nanoDSF thermal stabilization, GPX1; type: binding
Protocol: Thermal stabilization of enzyme ± DMSO or ± compound was carried out in a Prometheus NT.48 instrument (NanoTemper Technologies) with an excitation wavelength of 280 nm. Intrinsic fluorescence at 330 nm and 350 nm was monitored while heating. Capillaries were filled with ∼10 μL of a solution of GPX1/4 (1 mg/mL), ± small molecule (100 μM) or DMSO, in TES buffer and placed into the instrument. The capillaries were subjected to a temperature range from 30 to 90 °C at a ramp rate of 2 °C/min. The ratio of the recorded emission intensities (350nm/330 nm) were plotted as a function of temperature. This ratio and first derivatives were calculated using the NanoTemper software and were plotted using GraphPad Prism.

SMILES	inhibition of GR [1]	IC50 (GPX1 [2]) [µM]	GSH Binding (ΔTm) GPx1; shift in nanoDSF melting temperature (GPX1 [3]; 100 μM small molecule vs DMSO control, first or only inflection point)	thermal stabilization of GPX1 (GPX1 [3]; nanoDSF)
O=S(=O)(O)CC(S)CS (stereo not shown) [2,3-dimercaptopropanesulfonate]	not GR	–	–	–
CC(=O)OC[C@H]1O[C@@H]([S-])[C@H](OC(C)=O)[C@@H](OC(C)=O)[C@@H]1OC(C)=O.CCP(CC)CC.[Au+] [Auranofin]	–	5.3	+8.3 °C	significant shifts in the melting temperature of GPX1

From article PMC10220285, “Development of an assay pipeline for the discovery of novel small molecule inhibitors of human glutathione peroxidases GPX1 and GPX4” (Redox Biology, 2023)
